Read-outs that look alike come from different tables or passages of the source.
Key:
[1] = biological target: T1, EGFR with insertion of SVD between D770 and N771 (EGFR ins SVD) (Homo sapiens, UniProt P00533, DUP768-770); assay: Exon20-Mutant-EGFR(D770_N771insSVD) kinase assay (TR-FRET); format: biochemical; settings: 2 mM ATP, several values per example where printed
T1 construct: made in house; host or cells: Sf9 insect cells (baculovirus)

Bub1 = biological target: T2, Bub1 (Homo sapiens, UniProt O43683); assay: Bub1 TR-FRET high ATP kinase assay; format: biochemical; settings: 2 mM ATP
T2 construct: catalytic domain of human Bub1 (amino acids 704-1085); His6 (N); made in house; host or cells: Hi5 insect cells
T2 sequence (O43683 704-1085): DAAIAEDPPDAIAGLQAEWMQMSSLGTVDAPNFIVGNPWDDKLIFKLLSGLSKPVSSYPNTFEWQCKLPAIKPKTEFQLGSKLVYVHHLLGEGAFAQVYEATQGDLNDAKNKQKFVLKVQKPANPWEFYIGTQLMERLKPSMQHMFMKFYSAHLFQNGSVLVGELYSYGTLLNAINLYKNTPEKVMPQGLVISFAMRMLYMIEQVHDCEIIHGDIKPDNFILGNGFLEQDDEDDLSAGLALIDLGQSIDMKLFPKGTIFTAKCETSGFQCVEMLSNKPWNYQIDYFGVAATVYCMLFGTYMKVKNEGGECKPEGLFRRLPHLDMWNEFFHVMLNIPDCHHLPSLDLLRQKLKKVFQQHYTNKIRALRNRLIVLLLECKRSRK
Source text: Bub1 High ATP Kinase Assay
Bub1-inhibitory activity of compounds of the present invention at a high ATP concentration was quantified employing the Bub1 TR-FRET high ATP kinase assay as described in the following paragraphs.
N-terminally His6-tagged recombinant catalytic domain of human Bub1 (amino acids 704-1085), expressed in insect cells (Hi5) and purified by Ni-NTA affinity chromatography and subsequent size exclusion chromatography, was used as enzyme. As substrate for the kinase reaction the biotinylated peptide biotin-Ahx-[…]—SEQ ID 7 (C-terminus in amid form) was used which can be purchased e.g. form the company Biosyntan (Berlin, Germany).

Ba/F3-EGFR-insSVD cells = Ba/F3-EGFR-insSVD cells (Homo sapiens, UniProt P00533, DUP768-770, cells depend on it); assay: Ba/F3 cell survival assay (Cell Titer-Glo), EGFR-insSVD; format: cell-based; settings: without IL-3, with 10 ng/mL EGF, 48 h; read-out: BA/F3 (insSVD) IC50
Chain of Ba/F3-EGFR-insSVD cells (P00533 with tags, fused parts or gaps DUP768-770): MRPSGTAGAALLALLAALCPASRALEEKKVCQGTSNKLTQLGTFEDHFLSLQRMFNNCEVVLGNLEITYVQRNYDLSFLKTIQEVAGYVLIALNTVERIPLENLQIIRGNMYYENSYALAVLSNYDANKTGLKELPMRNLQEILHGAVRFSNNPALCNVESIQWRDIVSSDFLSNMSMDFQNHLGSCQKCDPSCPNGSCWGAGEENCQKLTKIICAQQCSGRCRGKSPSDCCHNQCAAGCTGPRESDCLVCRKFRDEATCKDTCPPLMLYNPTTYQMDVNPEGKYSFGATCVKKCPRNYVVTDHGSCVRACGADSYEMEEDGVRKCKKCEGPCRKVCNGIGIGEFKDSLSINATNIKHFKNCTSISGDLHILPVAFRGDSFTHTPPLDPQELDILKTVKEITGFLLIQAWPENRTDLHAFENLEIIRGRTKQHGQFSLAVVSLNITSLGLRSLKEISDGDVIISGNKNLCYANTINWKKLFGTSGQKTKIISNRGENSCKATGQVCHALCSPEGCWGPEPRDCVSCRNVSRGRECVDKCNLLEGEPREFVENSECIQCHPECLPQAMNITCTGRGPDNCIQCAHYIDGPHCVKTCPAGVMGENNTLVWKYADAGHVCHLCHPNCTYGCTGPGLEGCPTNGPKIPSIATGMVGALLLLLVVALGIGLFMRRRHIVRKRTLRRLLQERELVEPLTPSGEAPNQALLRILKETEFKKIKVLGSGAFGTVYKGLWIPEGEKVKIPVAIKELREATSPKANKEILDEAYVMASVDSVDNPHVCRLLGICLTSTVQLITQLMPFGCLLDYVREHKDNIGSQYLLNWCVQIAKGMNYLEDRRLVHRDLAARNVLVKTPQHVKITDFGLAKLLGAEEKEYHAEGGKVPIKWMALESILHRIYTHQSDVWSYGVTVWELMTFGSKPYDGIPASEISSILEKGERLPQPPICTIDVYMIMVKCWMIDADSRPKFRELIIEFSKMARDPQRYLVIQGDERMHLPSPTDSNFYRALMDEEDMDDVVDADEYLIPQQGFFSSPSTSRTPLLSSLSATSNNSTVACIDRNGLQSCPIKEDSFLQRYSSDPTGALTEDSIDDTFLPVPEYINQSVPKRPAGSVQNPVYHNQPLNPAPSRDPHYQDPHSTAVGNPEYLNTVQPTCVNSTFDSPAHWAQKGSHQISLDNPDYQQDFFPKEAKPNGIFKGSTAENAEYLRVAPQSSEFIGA
Description: (§1) 293T cells from ATCC were transfected with pBABEpuro expression constructs for WT EGFR or EGFR-insSVD and pCL-Eco packaging vector using Fugene-6 transfection reagent from Promega. Plates were incubated at 37° C. for 48 h. Retrovirus was harvested by filtering the media supernatant through a 0.45 μm filter.
(§2) Ba/F3 cells purchased from DSMZ were grown in RPMI+10% FBS+10 ng/mL IL-3 and infected with filtered retroviral supernatant at a 1:2 dilution. Polybrene was added to a concentration of 8 μg/mL, plates were spun for 90 min, and incubated overnight at 37° C. 2 μg/mL puromycin was added to the infected cells 24 h after infection and cells were continually grown in the presence of puromycin and 10 ng/mL IL-3. Following stably expressing Ba/F3 cell lines were generated: Ba/F3-EGFR-WT, Ba/F3-EGFR-insSVD, (Ba/F3-vector-control).
(§3) For cell survival assays, Ba/F3 cells were grown to a density of 1-2 million cells per mL, spun down and resuspended in media without IL-3, and replated at a concentration 200,000-500,000 cells per mL. The cells ectopically expressing WT EGFR or EGFR-insSVD were plated with 10 ng/mL Millipore Culture grade EGF. The cells ectopically expressing pBABEpuro empty vector were plated with 10 ng/mL IL-3. 2 days later, cells were plated in 50 μL in a 384 well plate at a concentration of 4000 cells per well for cells assayed in the absence of IL-3 and 2000 cells per well for cells assayed in the presence of IL-3. 100 nL of compound was added to each well using a 100 nL pin head, and plates were incubated at 37° C. for 48 h.
(§4) Cell viability was measured by adding 20 μL of Cell Titer-Glo Luminescent Cell Viability Reagent diluted 1:3 in PBS. Plates were sealed with Perkin Elmer Top-Seal, inverted several times to mix, and immediately centrifuged at 1000 rpm for 2 min. Plates were incubated in low light conditions for 8-10 min and luminescence was measured.

Ba/F3-EGFR-WT cells = Ba/F3-EGFR-WT cells (Homo sapiens, UniProt P00533); assay: Ba/F3 cell survival assay (Cell Titer-Glo), WT EGFR; format: cell-based; settings: without IL-3, with 10 ng/mL EGF, 48 h; read-out: BA/F3 (wild type) IC50
Chain of Ba/F3-EGFR-WT cells (P00533 whole entry, change not shown): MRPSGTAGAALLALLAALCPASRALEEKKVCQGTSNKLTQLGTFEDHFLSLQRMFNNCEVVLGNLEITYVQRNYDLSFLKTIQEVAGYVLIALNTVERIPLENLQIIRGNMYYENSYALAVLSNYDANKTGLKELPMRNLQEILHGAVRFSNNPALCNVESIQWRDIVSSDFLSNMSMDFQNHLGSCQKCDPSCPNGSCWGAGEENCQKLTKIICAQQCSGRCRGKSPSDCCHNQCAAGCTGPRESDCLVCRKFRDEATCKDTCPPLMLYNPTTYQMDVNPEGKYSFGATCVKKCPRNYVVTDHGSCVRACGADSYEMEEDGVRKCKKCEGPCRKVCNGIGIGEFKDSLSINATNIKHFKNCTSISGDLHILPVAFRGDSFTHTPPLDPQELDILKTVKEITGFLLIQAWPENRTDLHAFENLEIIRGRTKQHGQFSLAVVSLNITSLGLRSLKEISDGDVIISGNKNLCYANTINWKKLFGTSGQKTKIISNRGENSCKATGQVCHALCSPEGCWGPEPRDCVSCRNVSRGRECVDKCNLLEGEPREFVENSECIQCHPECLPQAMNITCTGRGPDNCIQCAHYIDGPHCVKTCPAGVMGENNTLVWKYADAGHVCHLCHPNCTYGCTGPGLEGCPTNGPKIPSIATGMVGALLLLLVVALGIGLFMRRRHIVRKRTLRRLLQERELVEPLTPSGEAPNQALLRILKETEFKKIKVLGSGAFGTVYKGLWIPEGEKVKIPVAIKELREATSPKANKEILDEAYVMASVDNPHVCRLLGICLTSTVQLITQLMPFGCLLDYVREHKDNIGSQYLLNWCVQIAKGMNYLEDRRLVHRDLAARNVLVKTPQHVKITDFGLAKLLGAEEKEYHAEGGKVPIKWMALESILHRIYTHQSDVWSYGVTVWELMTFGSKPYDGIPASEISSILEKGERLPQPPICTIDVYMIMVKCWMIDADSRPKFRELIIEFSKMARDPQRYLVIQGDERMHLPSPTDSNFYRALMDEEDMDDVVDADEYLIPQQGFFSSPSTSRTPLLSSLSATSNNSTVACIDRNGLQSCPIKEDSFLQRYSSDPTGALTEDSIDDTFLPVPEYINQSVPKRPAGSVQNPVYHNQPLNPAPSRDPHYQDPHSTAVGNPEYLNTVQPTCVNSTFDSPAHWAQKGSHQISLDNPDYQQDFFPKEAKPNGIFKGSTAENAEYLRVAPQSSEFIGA
Description: as §1, §2, §3, §4

[2] = Bub1 high ATP (2 mM) IC50 [mol/l]

T1 sequence (P00533 with tags, fused parts or gaps DUP768-770): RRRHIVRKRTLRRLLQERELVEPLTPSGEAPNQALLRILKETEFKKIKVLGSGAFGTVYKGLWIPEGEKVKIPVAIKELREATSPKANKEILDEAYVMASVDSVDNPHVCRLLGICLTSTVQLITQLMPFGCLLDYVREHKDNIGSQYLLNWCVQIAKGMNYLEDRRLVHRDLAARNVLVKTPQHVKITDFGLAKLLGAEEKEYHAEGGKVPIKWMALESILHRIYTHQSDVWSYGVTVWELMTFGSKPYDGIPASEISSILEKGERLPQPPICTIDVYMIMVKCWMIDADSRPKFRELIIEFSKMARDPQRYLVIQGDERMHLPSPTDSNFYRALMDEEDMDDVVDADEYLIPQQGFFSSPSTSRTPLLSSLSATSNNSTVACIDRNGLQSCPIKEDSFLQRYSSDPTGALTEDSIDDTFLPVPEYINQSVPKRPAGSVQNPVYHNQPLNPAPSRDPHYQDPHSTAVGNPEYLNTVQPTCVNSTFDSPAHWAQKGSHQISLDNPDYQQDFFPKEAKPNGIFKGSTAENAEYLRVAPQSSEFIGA

Row | Compound | mutEGFR (D770_N771insSVD) kinase assay IC50 [1] | IC50 (Bub1; [2]) | IC50 (Bub1; read-out: Bub1 high ATP (2 mM) IC50 [mol/l]) | GI50 (Ba/F3-EGFR-insSVD cells) | GI50 (Ba/F3-EGFR-WT cells)
1 | COc1c(Cl)cccc1Nc1c(-c2ccncc2OCC2CN(C)CCO2)[nH]c2c1C(=O)NCC2 (stereo not drawn) [Example 15, 3-(3-chloro-2-methoxyanilino)-2-{3-[(4-methylmorpholin-2-yl)methoxy]pyridin-4-yl}-1,5,6,7-tetrahydro-4H-pyrrolo[3,2-c]pyridin-4-one] | 0.151 nM | > 20000 nM | – | 15.3 nM | 426 nM
2 | COc1c(Cl)cccc1Nc1c(-c2ccncc2OCC2CN(C)CCO2)[nH]c2c1C(=O)NCC2 (single isomer, unassigned) [Example 16, 3-(3-chloro-2-methoxyanilino)-2-(3-{[4-methylmorpholin-2-yl]methoxy}pyridin-4-yl)-1,5,6,7-tetrahydro-4H-pyrrolo[3,2-c]pyridin-4-one] | 0.228 nM | > 20000 nM | – | 126 nM | 1050 nM
3 | COc1c(F)cccc1Nc1c(-c2ccncc2OC[C@H]2COCCN2C)[nH]c2c1C(=O)NCC2 [Example 37, 3-(3-fluoro-2-methoxyanilino)-2-(3-{[(3R)-4-methylmorpholin-3-yl]methoxy}pyridin-4-yl)-1,5,6,7-tetrahydro-4H-pyrrolo[3,2-c]pyridin-4-one] | 0.4 nM | 19000 nM | – | 35.7 nM | 348 nM
4 | COc1c(F)cccc1Nc1c(-c2ccncc2OC[C@@H]2CN(CC(F)F)CCO2)[nH]c2c1C(=O)NCC2 [Example 22, 2-(3-{[(2S)-4-(2,2-difluoroethyl)morpholin-2-yl]methoxy}pyridin-4-yl)-3-(3-fluoro-2-methoxyanilino)-1,5,6,7-tetrahydro-4H-pyrrolo[3,2-c]pyridin-4-one] | 0.153 nM | > 20000 nM | – | 41.9 nM | 544 nM

Now from value to compound, other results behind:

Row | mutEGFR (D770_N771insSVD) kinase assay IC50 [1] | IC50 (Bub1; [2]) | IC50 (Bub1; read-out: Bub1 high ATP (2 mM) IC50 [mol/l]) | Compound | GI50 (Ba/F3-EGFR-insSVD cells) | GI50 (Ba/F3-EGFR-WT cells)
5 | 0.225 nM | 2410 nM | – | Cc1c(Cl)cccc1Nc1c(-c2ccncc2OC[C@H]2COCCN2C)[nH]c2c1C(=O)NCC2 [Example 43, 3-(3-chloro-2-methylanilino)-2-(3-{[(3R)-4-methylmorpholin-3-yl]methoxy}pyridin-4-yl)-1,5,6,7-tetrahydro-4H-pyrrolo[3,2-c]pyridin-4-one] | 60.5 nM | 1250 nM
6 | 0.136 nM | 3580 nM | – | CCc1c(F)cccc1Nc1c(-c2ccncc2OCC2COCCO2)[nH]c2c1C(=O)NCC2 (stereo not drawn) [Example 65, 2-(3-{[1,4-dioxan-2-yl]methoxy}pyridin-4-yl)-3-(2-ethyl-3-fluoroanilino)-1,5,6,7-tetrahydro-4H-pyrrolo[3,2-c]pyridin-4-one] | 13.4 nM | 287 nM
7 | 0.187 nM | – | > 20000 nM | Cc1c(F)cccc1Nc1c(-c2ccncc2OCC2CN(C)CCO2)[nH]c2c1C(=O)NCC2 (single isomer, unassigned) [Example 64, 3-(3-fluoro-2-methylanilino)-2-(3-{[4-methylmorpholin-2-yl]methoxy}pyridin-4-yl)-1,5,6,7-tetrahydro-4H-pyrrolo[3,2-c]pyridin-4-one] | 7.58 nM | 271 nM
8 | 1.41 nM | > 20000 nM | – | COc1c(Cl)cccc1Nc1c(-c2ccncc2OC(C)C2CN(C)CCO2)[nH]c2c1C(=O)NCC2 (single isomer, unassigned) [Example 72, 3-(3-chloro-2-methoxyanilino)-2-[3-({1-[4-methylmorpholin-2-yl]ethyl}oxy)pyridin-4-yl]-1,5,6,7-tetrahydro-4H-pyrrolo[3,2-c]pyridin-4-one] | 67.3 nM | 957 nM
9 | 0.267 nM | > 20000 nM | – | CCc1c(F)cccc1Nc1c(-c2ccncc2OCC2COC(C)(C)CO2)[nH]c2c1C(=O)NCC2 (stereo not drawn) [Example 68, 2-(3-{[5,5-dimethyl-1,4-dioxan-2-yl]methoxy}pyridin-4-yl)-3-(2-ethyl-3-fluoroanilino)-1,5,6,7-tetrahydro-4H-pyrrolo[3,2-c]pyridin-4-one] | 37.3 nM | 644 nM

From US12679836B2, “4H-pyrrolo[3,2-c]pyridin-4-one compounds” (Bayer Aktiengesellschaft, priority 2019, dated 2026)
